Source: patent US20250386822A1, “Microcapsules controlling the diffusion of an active organic compound” (KAPSERA, priority 2022, published 2025)

Tests used:
[1] = Pheromone diffusion duration by SPME pre-concentration and GCMS, closed temperature-controlled chamber (Example 1); format: physicochemical; settings: pine processionary pheromone; paraffin oil core, 1% pheromone by weight
Excerpt: FIG. 1: This graph represents the abundance of the main compound of the non-encapsulated pheromone after preconcentration using the Solid Phase Micro-Extraction (SPME) technique, separation of the pheromone compounds by gas chromatography and detection by mass spectrometry (GCMS) in a closed temperature-controlled chamber. FIG. 2: This graph represents the abundance of the main compound of the encapsulated pheromone after preconcentration using the Solid Phase Micro-Extraction (SPME) technique, separation of the pheromone compounds by gas chromatography and detection by mass spectrometry (GCMS) in a closed temperature-controlled chamber. An analytical method was developed to detect the pheromone's main compound. The low quantities of analytes led to the choice of a pre-concentration method known as Solid Phase Micro-Extraction (SPME) and Gas Chromatography-Mass Spectrometry (GCMS).

[2] = Closed system: study of thermodynamic equilibrium, SPME-GC/MS in sealed 20 mL flasks (Example 2); format: physicochemical; settings: closed 20 mL flask; European grapevine moth pheromone
Method: In order to establish the diffusion profiles of the samples at short times and to obtain initial information on any differences between the capsules, a study was carried out in a closed system. The experiment consists of introducing the samples into 20 mL hermetically sealed flasks and following the evolution of the quantity extracted by the SPME fibre over time, until equilibrium is reached. Measurements were initially taken over short periods (one measurement every 45 minutes, corresponding to the analysis time) and then, once the maximum concentration had been reached, measurements were taken at longer intervals to ensure that equilibrium had been reached (one measurement every 2.5 hours). These tests were carried out using the European grapevine moth pheromone, (E)-7-(Z)-9-dodecadienyl acetate (C14H24O2).

SMILES | duration of the pheromone's diffusion [1] | time until equilibrium is reached [2] [h]
CC/C=C\C#CCCCCCCCCCCOC(C)=O [Example 1 non-encapsulated pheromone, Z-13-hexadecen-11-yn-1-yl acetate] | less than 10 days | 
CC/C=C\C=C\CCCCCCOC(C)=O [Example 2 non-encapsulated pheromone, (E)-7-(Z)-9-dodecadienyl acetate] |  | > 50
